Measurements reported in US9133109B2, “Method for preparing bromourea” (Bromine Compounds Ltd., priority 2010, dated 2015).

Assays:
[1] = system: Pseudomonas aeruginosa (ATCC 15442); assay: Biocidal activity against simulated biofilm systems (alginate beads); format: cell-based
Source text: A biofilm simulation system, alginate beads, developed by the Biofilm Bozeman Institute Montana (Grobe, K. J, Zahller, J and Stewart P. S., 2002 in “Role of dose concentration in biocide efficacy against Pseudomonas aeruginosa Biofilms”, J. Industrial Microbiology & Biotechnology, vol. 29, pp 10-15), was used in order to evaluate the efficacy of bromine/urea against biofilm.
The biofilm simulation was created by entrapping bacteria in alginate gel beads. A plate of R2A agar was streaked with Pseudomonas aeruginosa (ATCC 15442) and incubated at 35° C. overnight. Buffer phosphate at pH 7.2 was used to scrap off the bacteria from the agar plate and to create a suspension. The bacterial suspension was mixed with an equal volume of an aqueous 4% sodium alginate solution, to make a final 2% alginate solution. The alginate and bacterial slurry were placed in a 50 ml syringe attached to a gauge needle (22), connected to a compressed air tank, allowing the syringe be pressurized. At 20 psig pressure a stream of small drops was forced out and dropped into a stirred solution of 50 mM CaCl2. The Ca^+2 cross linked the alginate, and semi solid beads with entrapped bacterial cells were formed. The beads were allowed to stir in the CaCl2 solution for about 20 minutes, and then rinsed in a dilute 5 mM CaCl2 solution. Several flasks containing 100 beads each were incubated overnight at 35° C. on a rotating shaker in a buffer solution (at pH 7) with 5 mM addition of CaCl2 to maintain the beads structure. The resulting beads diameter is about 2 mm
At the beginning of the experiment, the supernatant of the beads buffer suspension containing 5 mM CaCl2 was decanted and replaced by the 100 ml biocide solution with the required concentration. Chlorourea compositions prepared as in Example 1, and bromourera composition prepared as in Example 2, were used for the biocidal experiments. Urea-bromine compositions prepared by dissolving urea 15.02 g (250.3 mmol, 15% concentration) and 1.17 g Br2 (7.32 mmol, 1.17% concentration) in 84 g H2O (34.2:1 urea:Br2 molar ratio). After different interval contact times, 10 beads were removed and placed in a 5 g/l sodium thiosulfate solution containing 50 mM sodium citrate. The sodium citrate was used to dissolve the alginate gel and release the bacteria into the solution. The neutralizer-citrate solution was placed in the refrigerator for 2 hours, than diluted and placed on R2A agar plates using pour plate technique. The plates were incubated at 35° C. for 24-48 hours and counted. The efficacy and toxicity of the neutralizer were checked as well as a control experiment without biocide addition. Four concentrations (0.5, 1, 2.5 and 5 ppm) were tested at four different contact times (5, 15, 30, and 60 min). Table 1-2 describe the surviving colony forming units (CFU) of the bacteria after different biocides treatment at different contact times.

[2] = Stability of the prepared halourea solution; format: physicochemical; details: aqueous chlorourea solution, 1.27% as total Cl2
Procedure: In a 250 ml round bottom flask equipped with a magnetic stir bar, a dropping funnel and a thermocouple, 46.04 g urea (Mw 60, 767 mmol) was dissolved in 35.3 g H2O, followed by the addition (upon cooling, exothermic) of 5.37 g of 32% HCl (Mw 36.64, 46.9 mmol). To the solution was added upon cooling 13.3 g of an aq. 10.7% NaOCl solution (wt % as active Cl2, 20 mmol) during 14 min. A slightly yellow solution was obtained retaining 1.27% Cl2 (wt % as total Cl2, iodometric titration, in relation to 1.5% wt % theoretical as Cl2). […] The solution was stable for at least 1 week.
In a 250 ml round bottom flask equipped with a magnetic stir bar, a dropping funnel and a thermocouple, 46 g urea (Mw 60, 767 mmol) was dissolved in 31.8 g H2O, followed by the addition (upon cooling, exothermic) of 8.96 g of 48% HBr (Mw 80.92, 53.15 mmol). To the solution was added upon cooling 13.4 g of an aq. 10.7% NaOCl solution (wt %, as total Cl2, 20.2 mmol) during 10 min. An orange solution was obtained retaining 1% Cl2 (wt %, as total Cl2, iodometric titration, in relation to 1.43% theoretical). […] The solution was stable for at least 24 hrs.

[3] = biocide 0.5 ppm as Cl2, contact time 0 (min)
[4] = biocide 0.5 ppm as Cl2, contact time 5 min
[5] = biocide 0.5 ppm as Cl2, contact time 15 min
[6] = biocide 0.5 ppm as Cl2, contact time 30 min
[7] = biocide 0.5 ppm as Cl2, contact time 60 min
[8] = biocide 1 ppm as Cl2, contact time 0 (min)
[9] = biocide 1 ppm as Cl2, contact time 5 min
[10] = biocide 1 ppm as Cl2, contact time 15 min
[11] = biocide 1 ppm as Cl2, contact time 30 min
[12] = biocide 1 ppm as Cl2, contact time 60 min
[13] = biocide 2.5 ppm as Cl2, contact time 0 (min)
[14] = biocide 2.5 ppm as Cl2, contact time 5 min
[15] = biocide 2.5 ppm as Cl2, contact time 15 min
[16] = biocide 2.5 ppm as Cl2, contact time 30 min
[17] = biocide 2.5 ppm as Cl2, contact time 60 min
[18] = biocide 5 ppm as Cl2, contact time 0 (min)
[19] = biocide 5 ppm as Cl2, contact time 5 min
[20] = biocide 5 ppm as Cl2, contact time 15 min
[21] = biocide 5 ppm as Cl2, contact time 30 min
[22] = biocide 5 ppm as Cl2, contact time 60 min

| Compound | survival of bacteria (CFU) [1, 3] | survival of bacteria (CFU) [1, 4] | survival of bacteria (CFU) [1, 5] | survival of bacteria (CFU) [1, 6] | survival of bacteria (CFU) [1, 7] | survival of bacteria (CFU) [1, 8] | survival of bacteria (CFU) [1, 9] | survival of bacteria (CFU) [1, 10] | survival of bacteria (CFU) [1, 11] | survival of bacteria (CFU) [1, 12] | survival of bacteria (CFU) [1, 13] | survival of bacteria (CFU) [1, 14] | survival of bacteria (CFU) [1, 15] | survival of bacteria (CFU) [1, 16] | survival of bacteria (CFU) [1, 17] | survival of bacteria (CFU) [1, 18] | survival of bacteria (CFU) [1, 19] | survival of bacteria (CFU) [1, 20] | survival of bacteria (CFU) [1, 21] | survival of bacteria (CFU) [1, 22] [CFU] | also measured |
| --- | --- | --- | --- | --- | --- | --- | --- | --- | --- | --- | --- | --- | --- | --- | --- | --- | --- | --- | --- | --- | --- |
| NC(=O)NBr [bromourea] | 9.22 × 10^6 CFU | 8.10 × 10^6 CFU | 8.00 × 10^6 CFU | 3.50 × 10^6 CFU | 7.37 × 10^5 CFU | 9.22 × 10^6 CFU | 9.30 × 10^6 CFU | 1.73 × 10^6 CFU | 1.00 × 10^4 CFU | <1.00 CFU | 9.22 × 10^6 CFU | 2.72 × 10^6 CFU | 6.08 × 10^2 CFU | 5.00 × 10^1 CFU | <1.00 CFU | 9.22 × 10^6 CFU | 3.00 × 10^5 CFU | <1.00 CFU | <1.00 CFU | <1.00 |  |
| NC(=O)NCl [chlorourea] | 2.28 × 10^7 CFU | 2.80 × 10^7 CFU | 2.43 × 10^7 CFU | 2.28 × 10^7 CFU | 1.00 × 10^7 CFU | 2.28 × 10^7 CFU | 1.89 × 10^7 CFU | 1.61 × 10^7 CFU | 1.66 × 10^7 CFU | 6.40 × 10^5 CFU | 2.28 × 10^7 CFU | 2.20 × 10^7 CFU | 1.42 × 10^7 CFU | 3.56 × 10^5 CFU | 1.58 × 10^3 CFU | 2.28 × 10^7 CFU | 2.16 × 10^7 CFU | 1.00 × 10^6 CFU | 3.25 × 10^3 CFU | <1.00 | time for which the solution was stable [2]: at least 1 week |
